{"source": "ChEMBL document CHEMBL1201862", "about": "“PubChem BioAssay data set” (2004)", "type_in_all_cases": "functional", "key": {"[1]": {"molecular_target": "T1, Sentrin-specific protease 7 (Homo sapiens, UniProt Q9BQF6)", "T1 sequence (Q9BQF6 whole entry)": "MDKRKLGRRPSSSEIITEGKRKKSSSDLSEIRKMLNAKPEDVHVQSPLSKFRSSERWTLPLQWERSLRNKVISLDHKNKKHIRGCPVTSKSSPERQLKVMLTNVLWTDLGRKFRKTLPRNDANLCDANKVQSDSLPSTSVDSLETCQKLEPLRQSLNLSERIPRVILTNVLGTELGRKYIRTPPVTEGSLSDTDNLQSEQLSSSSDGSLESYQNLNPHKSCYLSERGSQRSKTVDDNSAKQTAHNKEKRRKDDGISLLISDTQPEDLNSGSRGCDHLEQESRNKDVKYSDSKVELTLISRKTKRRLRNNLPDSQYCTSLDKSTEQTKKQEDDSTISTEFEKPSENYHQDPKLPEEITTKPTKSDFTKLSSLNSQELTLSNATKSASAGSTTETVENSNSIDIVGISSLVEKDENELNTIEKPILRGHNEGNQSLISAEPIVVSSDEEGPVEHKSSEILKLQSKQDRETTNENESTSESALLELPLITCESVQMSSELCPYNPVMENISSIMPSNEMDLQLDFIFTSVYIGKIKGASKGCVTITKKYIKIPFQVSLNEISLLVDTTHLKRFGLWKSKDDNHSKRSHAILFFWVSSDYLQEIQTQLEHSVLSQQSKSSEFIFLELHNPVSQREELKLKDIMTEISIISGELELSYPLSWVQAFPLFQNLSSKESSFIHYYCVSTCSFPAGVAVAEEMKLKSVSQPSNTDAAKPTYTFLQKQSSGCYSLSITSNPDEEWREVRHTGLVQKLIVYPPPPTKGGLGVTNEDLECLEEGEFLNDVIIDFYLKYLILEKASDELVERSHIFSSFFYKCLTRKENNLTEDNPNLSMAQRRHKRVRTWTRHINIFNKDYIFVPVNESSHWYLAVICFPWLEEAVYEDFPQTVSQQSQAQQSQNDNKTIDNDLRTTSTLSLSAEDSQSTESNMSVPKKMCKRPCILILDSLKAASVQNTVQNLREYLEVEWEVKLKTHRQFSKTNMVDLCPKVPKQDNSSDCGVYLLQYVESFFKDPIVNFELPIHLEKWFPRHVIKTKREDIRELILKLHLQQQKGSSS"}, "Caspase-3": {"molecular_target": "T2, Caspase-3 (Homo sapiens, UniProt P42574)", "T2 sequence (P42574 whole entry)": "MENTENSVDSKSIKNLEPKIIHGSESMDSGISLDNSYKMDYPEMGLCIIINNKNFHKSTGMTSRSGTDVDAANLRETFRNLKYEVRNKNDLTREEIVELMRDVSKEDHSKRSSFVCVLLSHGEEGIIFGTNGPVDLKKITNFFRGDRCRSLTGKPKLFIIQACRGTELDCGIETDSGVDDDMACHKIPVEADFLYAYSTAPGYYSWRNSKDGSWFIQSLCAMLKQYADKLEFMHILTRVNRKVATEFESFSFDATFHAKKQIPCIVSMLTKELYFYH"}, "[2]": {"molecular_target": "T3, Replicative DNA helicase DnaB (Mycobacterium tuberculosis, UniProt P9WMR3)", "T3 sequence (P9WMR3 whole entry)": "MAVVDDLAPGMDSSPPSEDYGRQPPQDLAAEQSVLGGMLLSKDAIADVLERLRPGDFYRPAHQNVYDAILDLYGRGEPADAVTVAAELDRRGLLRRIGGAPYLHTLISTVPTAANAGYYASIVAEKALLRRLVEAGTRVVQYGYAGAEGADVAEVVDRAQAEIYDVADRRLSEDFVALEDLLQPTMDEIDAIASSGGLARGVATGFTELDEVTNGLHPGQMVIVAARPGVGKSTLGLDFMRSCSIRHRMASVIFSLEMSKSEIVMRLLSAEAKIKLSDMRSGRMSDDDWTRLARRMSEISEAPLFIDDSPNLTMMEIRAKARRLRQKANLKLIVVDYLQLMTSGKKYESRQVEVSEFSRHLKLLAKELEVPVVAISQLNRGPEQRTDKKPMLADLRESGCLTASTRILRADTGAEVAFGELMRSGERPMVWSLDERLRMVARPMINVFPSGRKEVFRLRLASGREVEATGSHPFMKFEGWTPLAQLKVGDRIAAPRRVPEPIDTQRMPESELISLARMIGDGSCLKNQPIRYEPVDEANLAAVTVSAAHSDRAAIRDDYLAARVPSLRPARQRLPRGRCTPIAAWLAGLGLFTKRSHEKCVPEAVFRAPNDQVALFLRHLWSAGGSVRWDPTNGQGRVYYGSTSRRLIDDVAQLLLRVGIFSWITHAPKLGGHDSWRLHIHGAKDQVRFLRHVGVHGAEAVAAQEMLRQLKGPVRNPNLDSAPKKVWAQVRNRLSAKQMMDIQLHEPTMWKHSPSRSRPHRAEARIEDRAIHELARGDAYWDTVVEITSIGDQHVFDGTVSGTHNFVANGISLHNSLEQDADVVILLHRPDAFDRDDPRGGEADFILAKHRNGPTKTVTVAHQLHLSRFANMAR", "experiment": "DnaB intein splicing inhibitors, dose response, biochemical, cell-free fluorescence (AID 449749)"}, "Protein RecA": {"molecular_target": "T4, Protein RecA (Mycobacterium tuberculosis, UniProt P9WHJ3)", "T4 sequence (P9WHJ3 whole entry)": "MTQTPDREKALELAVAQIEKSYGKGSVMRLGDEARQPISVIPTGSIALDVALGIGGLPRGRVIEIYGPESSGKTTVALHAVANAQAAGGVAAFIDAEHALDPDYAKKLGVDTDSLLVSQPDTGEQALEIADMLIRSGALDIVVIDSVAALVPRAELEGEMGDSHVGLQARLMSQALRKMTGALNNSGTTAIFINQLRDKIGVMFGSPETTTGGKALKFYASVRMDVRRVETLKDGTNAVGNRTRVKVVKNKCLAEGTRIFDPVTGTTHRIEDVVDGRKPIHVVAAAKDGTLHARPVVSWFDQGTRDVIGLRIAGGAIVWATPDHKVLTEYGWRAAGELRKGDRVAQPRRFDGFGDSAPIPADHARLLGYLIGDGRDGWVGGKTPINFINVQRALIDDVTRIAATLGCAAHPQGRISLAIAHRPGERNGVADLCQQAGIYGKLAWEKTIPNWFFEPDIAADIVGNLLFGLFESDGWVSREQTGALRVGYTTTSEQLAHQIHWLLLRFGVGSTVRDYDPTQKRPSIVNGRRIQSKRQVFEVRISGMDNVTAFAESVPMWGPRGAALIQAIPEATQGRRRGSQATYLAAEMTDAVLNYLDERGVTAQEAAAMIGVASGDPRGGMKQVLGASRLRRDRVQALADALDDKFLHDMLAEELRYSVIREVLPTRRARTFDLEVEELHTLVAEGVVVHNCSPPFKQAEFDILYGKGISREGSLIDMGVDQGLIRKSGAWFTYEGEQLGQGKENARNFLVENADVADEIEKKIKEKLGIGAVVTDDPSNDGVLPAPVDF", "experiment": "Fluorescence Cell-Free Homogeneous Dose Retest to Identify Inhibitors of RecA-Intein Splicing Activity. [Related pubchem assays (depositor defined):AID2097, AID2223, AID489010, AID492950]"}}, "note": "Activity calls are given as the source filed them.", "data": [{"compound": "Oc1ccccc1/C=C/c1noc(-c2ccccc2O)n1", "values": [{"measurement": "IC50", "setting": "[1]", "value": "3.46 µM (active)"}, {"measurement": "IC50", "setting": "Caspase-3", "value": "39.7 µM (active)"}]}, {"compound": "Cc1nn(-c2ccccc2)c(Cl)c1CN(C(=O)CCl)c1ccc(Cl)cc1", "values": [{"measurement": "AC50", "setting": "[2]", "value": "1.52 µM (active)"}, {"measurement": "EC50", "setting": "Protein RecA", "value": "0.355 µM (active)"}]}, {"compound": "O=C(O)CSc1cc(NS(=O)(=O)c2ccc(Cl)cc2)c2ccccc2c1O", "values": [{"measurement": "AC50", "setting": "[2]", "value": "2.91 µM (active)"}, {"measurement": "EC50", "setting": "Protein RecA", "value": "2.39 µM (active)"}]}, {"compound": "COc1ccccc1N1C(=O)Cc2ccccc2C1=O", "values": [{"measurement": "IC50", "setting": "[1]", "value": "31.2 µM (active)"}, {"measurement": "AC50", "setting": "[2]", "value": "> 380 µM (inactive)"}, {"measurement": "EC50", "setting": "Protein RecA", "value": "9.77 µM (active)"}, {"measurement": "IC50", "setting": "Caspase-3", "value": "4.61 µM (active)"}]}, {"compound": "Cc1cccc(N=Nc2ccc(N(C)C)cc2)c1", "values": [{"measurement": "IC50", "setting": "[1]", "value": "2.52 µM (active)"}, {"measurement": "IC50", "setting": "Caspase-3", "value": "5.57 µM (active)"}]}]}
